Data on eight compounds can be found in ChEMBL document CHEMBL1201862, “PubChem BioAssay data set” (2004).

One may read the EC50 as the concentration giving half of the maximal effect. The term IC50 denotes the concentration that inhibits the measured activity by half. As a reminder, the AC50 is the concentration at which the activity in the assay is half-maximal.

Active and inactive are the calls of the source.

In experiment [1] the test system is Streptococcus sp. 'group A'. As to the kind of experiment: Streptococcus pyogenes SK(-)GAS viability under kanamycin – luminescence, BacTiterGlo, confirmation, counter-screen for streptokinase expression inhibitor project, dose response (AID 1900). The experiment is classed as functional, organism-based. A general note: Counterscreens check selectivity or assay interference.

In experiment [2] the test system is Streptococcus. Kind of experiment: Luminescence Microorganism-Based Dose Response Follow up to Identify Compounds Cytotoxic to Streptococcus. [Related pubchem assays: 1677 (Project Summary), 1915, 1914, 1902 (Retest at Dose), 1900 (Counter Screen), 1662 (Primary HTS)]. In kind it is functional, organism-based.
The next experiment deals with T1, Streptokinase A (Streptococcus pyogenes serotype M1, UniProt P10520).
T1 sequence (P10520 whole entry): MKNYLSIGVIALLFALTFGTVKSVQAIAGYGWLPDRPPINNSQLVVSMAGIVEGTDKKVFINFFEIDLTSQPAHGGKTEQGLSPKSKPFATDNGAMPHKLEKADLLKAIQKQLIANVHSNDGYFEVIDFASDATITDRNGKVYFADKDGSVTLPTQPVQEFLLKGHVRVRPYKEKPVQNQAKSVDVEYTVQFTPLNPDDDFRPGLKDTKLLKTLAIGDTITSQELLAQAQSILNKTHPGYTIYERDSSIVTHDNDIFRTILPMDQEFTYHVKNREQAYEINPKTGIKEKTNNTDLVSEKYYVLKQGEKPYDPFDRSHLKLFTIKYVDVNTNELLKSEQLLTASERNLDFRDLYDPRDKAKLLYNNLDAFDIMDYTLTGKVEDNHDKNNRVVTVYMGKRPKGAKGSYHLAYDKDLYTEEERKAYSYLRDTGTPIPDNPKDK
As to the kind of experiment: viability-normalized secreted streptokinase activity reduction – plasminogen activation absorbance, OD405, dose response (AID 1914).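 Further: secreted streptokinase activity via plasminogen activation per viability signal from cell pellet.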 The experiment is classed as functional, Streptococcus pyogenes M1 GAS.

The subject of experiment [3] is Streptococcus. As to the kind of experiment: GAS UMAA2166 growth inhibition – luminescence, BacTiterGlo, counter-screen for streptokinase expression inhibitor project, dose response (AID 1915).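 Further: potency for reduction of bacterial viability or growth.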 In kind it is functional, organism-based.
The target of experiment [4] is T2, Luciferin 4-monooxygenase (Photinus pyralis, UniProt P08659). As to the kind of experiment: Counter Screen for Luciferase-based Assay Positives. [Related pubchem assays: 620, 618, 411 ].
T2 sequence (P08659 whole entry): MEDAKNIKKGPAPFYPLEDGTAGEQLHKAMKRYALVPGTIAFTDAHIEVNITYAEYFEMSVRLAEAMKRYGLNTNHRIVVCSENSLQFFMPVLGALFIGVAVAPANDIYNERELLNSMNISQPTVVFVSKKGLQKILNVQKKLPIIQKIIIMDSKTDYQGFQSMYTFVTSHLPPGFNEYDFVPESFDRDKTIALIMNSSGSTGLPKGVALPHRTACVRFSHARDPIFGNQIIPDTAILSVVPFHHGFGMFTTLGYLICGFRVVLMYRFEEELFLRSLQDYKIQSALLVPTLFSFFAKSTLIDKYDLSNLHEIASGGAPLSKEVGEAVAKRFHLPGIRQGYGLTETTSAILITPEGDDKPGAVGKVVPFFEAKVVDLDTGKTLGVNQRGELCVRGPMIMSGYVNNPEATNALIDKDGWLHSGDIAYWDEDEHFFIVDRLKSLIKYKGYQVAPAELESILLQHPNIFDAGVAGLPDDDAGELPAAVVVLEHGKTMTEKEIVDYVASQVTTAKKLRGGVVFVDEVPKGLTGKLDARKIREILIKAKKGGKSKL
Experiment [5] addresses T2, Luciferin 4-monooxygenase. Kind of experiment: inhibition of purified Photinus pyralis luciferase – biochemical, luminescence, dose response (AID 1891).
The nature of experiment [6]: Luminescence Cell-Based Dose Confirmation HTS to Identify Inhibitors of Platelet Dense Granule Release. [Related pubchem assays: 1663 (Primary HTS), 1678 (Summary of Project)]. The experiment is classed as functional.
The next experiment deals with HT-1080. As to the kind of experiment: HT1080 cell viability loss – fluorescence readout (AID 620). As to conditions: Homo sapiens. In kind it is functional, cell-based.
In the next experiment the target is T3, Protein skinhead-1 (Caenorhabditis elegans, UniProt P34707).
T3 sequence (P34707 whole entry): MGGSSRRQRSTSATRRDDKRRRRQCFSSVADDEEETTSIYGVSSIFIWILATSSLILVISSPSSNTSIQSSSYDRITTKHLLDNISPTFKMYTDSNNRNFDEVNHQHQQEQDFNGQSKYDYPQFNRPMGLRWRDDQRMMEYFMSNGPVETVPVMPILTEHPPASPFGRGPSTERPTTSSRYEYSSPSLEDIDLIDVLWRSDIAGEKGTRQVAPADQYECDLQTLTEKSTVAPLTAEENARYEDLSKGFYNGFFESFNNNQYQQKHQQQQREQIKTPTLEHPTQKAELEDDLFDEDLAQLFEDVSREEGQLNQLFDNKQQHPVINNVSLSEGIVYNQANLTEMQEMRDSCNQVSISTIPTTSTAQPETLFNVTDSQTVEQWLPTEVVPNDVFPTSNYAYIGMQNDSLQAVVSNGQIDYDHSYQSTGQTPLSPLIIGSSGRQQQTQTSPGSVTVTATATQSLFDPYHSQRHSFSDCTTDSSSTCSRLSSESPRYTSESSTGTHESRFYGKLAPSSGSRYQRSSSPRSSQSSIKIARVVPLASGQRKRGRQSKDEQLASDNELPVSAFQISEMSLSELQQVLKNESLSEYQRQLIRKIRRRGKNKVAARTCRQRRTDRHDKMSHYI
The experiment is classed as functional.

Another experiment deals with Cytochrome P450 2C9 (Homo sapiens, UniProt P11712). As to conditions: Potency.
Cytochrome P450 2C9, sequence (P11712 whole entry): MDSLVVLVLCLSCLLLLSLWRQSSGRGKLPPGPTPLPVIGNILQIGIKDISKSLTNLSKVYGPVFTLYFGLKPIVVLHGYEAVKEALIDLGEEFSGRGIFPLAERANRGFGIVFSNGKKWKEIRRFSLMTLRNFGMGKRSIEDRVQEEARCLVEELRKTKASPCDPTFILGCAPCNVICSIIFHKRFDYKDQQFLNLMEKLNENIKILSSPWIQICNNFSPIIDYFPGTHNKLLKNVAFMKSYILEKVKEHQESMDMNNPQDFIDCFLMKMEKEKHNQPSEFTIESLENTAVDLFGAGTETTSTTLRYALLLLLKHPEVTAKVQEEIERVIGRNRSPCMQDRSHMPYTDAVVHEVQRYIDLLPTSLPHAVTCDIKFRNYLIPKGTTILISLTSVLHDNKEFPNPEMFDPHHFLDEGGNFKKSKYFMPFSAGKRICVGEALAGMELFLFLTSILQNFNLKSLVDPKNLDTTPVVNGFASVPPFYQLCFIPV
Another experiment concerns the target Tumor necrosis factor (Homo sapiens, UniProt P01375). Kind of experiment: analog potency on TNFa NF-kB signaling – cell-based, revised, SAR follow-up (AID 2337). In kind it is functional.
Another experiment concerns the target Interleukin-8 (Homo sapiens, UniProt P10145). Kind of experiment: SAR analysis of tumor necrosis factor alpha (TNF-alpha) induced IL-8 secretion in MCF-7/NOD1 cells. [Related pubchem assays (depositor defined):AID1575, AID2250, AID2260]. In kind it is functional, cell-based.
Experiment [7] has as its system HEK293. Kind of experiment: SAR analysis of compounds that are cytotoxic to HEK293 - Set 3. [Related pubchem assays (depositor defined):AID1575, AID1578, AID1848, AID1849, AID2001, AID2333, AID2334, AID2335, AID2337, AID2469]. Particulars: Homo sapiens. The experiment is classed as functional, cell-based.
Experiment [8] relates to HEK293. As to the kind of experiment: cells. As to conditions: Homo sapiens.
Experiment [9] concerns the target Mothers against decapentaplegic homolog 3 (Homo sapiens, UniProt P84022). As to the kind of experiment: blockers of Smad3 complex formation in lysate – cell lysate, secondary confirmation, chemiluminescent ELISA, HEK293 lysate, dose response (AID 1058). The experiment is classed as functional.
Experiment [10] is described as follows: CCR5-tropic HIV-1 fusion blockers – cell-based, CCR5-tropic Env, dose response (AID 2279). In kind it is functional.
Experiment [11] concerns the target Induced myeloid leukemia cell differentiation protein Mcl-1 (Homo sapiens, UniProt Q07820). The experiment is classed as functional.
For experiment [12], the target named is T4, Tyrosine-protein phosphatase non-receptor type 7 (Homo sapiens, UniProt P35236).
T4 sequence (P35236 whole entry): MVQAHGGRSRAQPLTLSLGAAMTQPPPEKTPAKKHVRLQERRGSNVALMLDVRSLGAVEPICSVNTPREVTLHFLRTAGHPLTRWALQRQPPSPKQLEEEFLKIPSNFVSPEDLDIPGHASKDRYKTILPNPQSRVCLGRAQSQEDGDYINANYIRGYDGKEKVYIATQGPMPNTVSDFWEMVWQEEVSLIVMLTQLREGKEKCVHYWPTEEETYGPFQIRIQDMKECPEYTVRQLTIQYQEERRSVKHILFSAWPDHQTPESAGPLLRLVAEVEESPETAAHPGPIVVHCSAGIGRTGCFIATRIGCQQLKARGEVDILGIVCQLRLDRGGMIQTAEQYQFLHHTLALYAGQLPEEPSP
The experiment is classed as functional.

For experiment [13], the target named is Glyceraldehyde-3-phosphate dehydrogenase (Homo sapiens, UniProt P04406).
Glyceraldehyde-3-phosphate dehydrogenase, sequence (P04406 whole entry): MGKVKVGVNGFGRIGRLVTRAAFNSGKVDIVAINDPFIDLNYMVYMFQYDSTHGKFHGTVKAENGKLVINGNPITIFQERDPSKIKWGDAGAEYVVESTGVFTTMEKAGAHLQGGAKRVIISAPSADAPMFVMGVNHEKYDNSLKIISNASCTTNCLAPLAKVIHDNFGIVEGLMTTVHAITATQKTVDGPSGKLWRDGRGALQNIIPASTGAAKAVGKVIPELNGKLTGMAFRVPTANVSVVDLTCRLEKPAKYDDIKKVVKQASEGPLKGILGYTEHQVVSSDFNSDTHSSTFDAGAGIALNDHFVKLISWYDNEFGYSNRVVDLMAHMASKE
The target in experiment [14] is Heat shock cognate 71 kDa protein (Homo sapiens, UniProt P11142). Kind of experiment: In Vitro Hsc70 Dose Response Fluorescence Polarization Assay. [Related pubchem assays: 1072 ].
Heat shock cognate 71 kDa protein, sequence (P11142 whole entry): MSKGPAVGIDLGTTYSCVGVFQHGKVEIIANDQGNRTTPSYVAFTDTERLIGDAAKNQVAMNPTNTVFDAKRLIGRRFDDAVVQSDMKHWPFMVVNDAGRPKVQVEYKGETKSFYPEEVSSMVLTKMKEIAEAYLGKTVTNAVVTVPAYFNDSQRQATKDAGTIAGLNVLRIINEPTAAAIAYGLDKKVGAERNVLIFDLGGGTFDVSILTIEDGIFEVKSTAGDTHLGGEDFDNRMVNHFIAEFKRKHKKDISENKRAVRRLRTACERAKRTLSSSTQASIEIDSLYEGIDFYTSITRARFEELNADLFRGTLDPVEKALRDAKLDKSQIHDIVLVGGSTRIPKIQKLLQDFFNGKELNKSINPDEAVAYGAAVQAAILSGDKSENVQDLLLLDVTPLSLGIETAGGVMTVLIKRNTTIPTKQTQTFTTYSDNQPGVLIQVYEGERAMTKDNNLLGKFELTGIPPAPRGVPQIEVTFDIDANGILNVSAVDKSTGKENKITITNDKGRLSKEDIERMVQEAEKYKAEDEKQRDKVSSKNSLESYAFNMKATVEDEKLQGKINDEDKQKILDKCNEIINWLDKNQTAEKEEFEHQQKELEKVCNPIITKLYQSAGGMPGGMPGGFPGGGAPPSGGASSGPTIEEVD
In experiment [15] the target is Heat shock 70 kDa protein 1A (Homo sapiens, UniProt P0DMV8). Kind of experiment: inhibition of Hsp70 binding activity – biochemical, fluorescence polarization, SAR follow-up (AID 1072). Background: Fluorescence polarisation rises when a labelled molecule tumbles more slowly, as on binding a larger partner.
Heat shock 70 kDa protein 1A, sequence (P0DMV8 whole entry): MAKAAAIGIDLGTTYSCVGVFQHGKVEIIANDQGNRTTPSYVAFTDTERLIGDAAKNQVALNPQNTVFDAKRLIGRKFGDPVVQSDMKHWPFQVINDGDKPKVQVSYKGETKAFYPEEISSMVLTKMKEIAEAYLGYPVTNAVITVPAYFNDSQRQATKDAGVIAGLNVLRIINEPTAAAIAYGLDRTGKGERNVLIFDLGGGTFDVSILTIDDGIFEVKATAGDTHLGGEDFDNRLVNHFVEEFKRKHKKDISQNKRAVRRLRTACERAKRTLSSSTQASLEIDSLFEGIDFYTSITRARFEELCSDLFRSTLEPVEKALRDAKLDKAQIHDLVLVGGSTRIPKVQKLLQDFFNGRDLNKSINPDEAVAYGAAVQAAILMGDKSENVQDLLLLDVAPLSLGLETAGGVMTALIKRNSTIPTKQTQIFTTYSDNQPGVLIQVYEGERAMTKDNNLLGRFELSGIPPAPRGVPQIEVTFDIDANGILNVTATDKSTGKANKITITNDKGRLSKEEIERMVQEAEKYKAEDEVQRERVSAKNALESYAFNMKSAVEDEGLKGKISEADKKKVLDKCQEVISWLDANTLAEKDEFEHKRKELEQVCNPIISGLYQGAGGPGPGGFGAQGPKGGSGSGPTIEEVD
The target of experiment [16] is T5, Dual specificity protein phosphatase 6 (Rattus norvegicus, UniProt Q64346).
T5 sequence (Q64346 whole entry): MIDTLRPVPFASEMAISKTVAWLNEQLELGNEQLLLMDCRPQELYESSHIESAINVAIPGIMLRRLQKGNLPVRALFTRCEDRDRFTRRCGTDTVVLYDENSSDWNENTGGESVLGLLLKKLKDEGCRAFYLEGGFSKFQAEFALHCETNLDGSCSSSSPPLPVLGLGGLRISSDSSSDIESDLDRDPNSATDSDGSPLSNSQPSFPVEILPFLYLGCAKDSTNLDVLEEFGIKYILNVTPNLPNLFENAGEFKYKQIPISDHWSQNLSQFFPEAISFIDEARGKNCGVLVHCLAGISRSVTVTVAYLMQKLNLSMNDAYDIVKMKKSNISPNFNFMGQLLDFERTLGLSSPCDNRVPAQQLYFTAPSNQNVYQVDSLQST

Experiment [17] concerns the target T5, Dual specificity protein phosphatase 6. The experiment is classed as functional.
For experiment [18], the target named is Cyclin-dependent kinase 5/CDK5 activator 1 (Homo sapiens, UniProt Q00535). Kind of experiment: blockade of human CDK5 activity – biochemical, cherry-picked samples, set 2, dose response (AID 504545).
Cyclin-dependent kinase 5/CDK5 activator 1, sequence (Q00535 whole entry): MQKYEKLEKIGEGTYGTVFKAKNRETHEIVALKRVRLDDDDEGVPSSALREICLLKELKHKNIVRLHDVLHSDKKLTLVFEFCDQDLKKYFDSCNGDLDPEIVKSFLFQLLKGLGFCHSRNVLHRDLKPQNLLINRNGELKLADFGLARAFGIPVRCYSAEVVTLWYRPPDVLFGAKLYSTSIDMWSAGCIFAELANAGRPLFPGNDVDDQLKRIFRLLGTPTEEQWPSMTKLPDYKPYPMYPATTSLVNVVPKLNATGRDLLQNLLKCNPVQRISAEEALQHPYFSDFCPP
Cyclin-dependent kinase 5/CDK5 activator 1, sequence (Q15078 whole entry, further chain): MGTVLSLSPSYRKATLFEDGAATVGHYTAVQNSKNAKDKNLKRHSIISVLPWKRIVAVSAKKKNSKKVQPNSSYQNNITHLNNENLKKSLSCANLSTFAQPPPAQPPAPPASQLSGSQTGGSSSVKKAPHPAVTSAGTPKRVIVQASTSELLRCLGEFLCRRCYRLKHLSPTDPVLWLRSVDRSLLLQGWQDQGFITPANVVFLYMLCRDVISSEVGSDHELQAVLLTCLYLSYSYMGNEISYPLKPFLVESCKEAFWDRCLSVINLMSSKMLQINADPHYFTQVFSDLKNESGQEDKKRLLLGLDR

Induced myeloid leukemia cell differentiation protein Mcl-1, sequence (Q07820 whole entry): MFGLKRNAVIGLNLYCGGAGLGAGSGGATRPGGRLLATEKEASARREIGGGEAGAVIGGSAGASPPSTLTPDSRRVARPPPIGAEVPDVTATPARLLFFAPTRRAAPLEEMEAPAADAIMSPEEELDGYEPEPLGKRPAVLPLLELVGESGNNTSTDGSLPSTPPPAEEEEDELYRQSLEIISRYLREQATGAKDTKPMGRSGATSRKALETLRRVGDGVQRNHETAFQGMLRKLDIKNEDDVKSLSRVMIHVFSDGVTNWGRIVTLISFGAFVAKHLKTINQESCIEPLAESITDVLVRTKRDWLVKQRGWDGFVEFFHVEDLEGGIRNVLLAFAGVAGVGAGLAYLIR
Interleukin-8, sequence (P10145 whole entry): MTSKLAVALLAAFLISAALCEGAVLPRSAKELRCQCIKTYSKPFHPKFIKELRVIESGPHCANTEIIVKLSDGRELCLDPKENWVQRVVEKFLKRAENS
Tumor necrosis factor, sequence (P01375 whole entry): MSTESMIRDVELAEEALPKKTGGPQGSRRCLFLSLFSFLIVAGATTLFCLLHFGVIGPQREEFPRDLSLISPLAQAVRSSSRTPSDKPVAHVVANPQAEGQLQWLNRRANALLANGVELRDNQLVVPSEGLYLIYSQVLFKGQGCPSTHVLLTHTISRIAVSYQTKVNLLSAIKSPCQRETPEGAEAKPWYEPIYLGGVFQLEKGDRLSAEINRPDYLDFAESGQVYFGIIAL
Mothers against decapentaplegic homolog 3, sequence (P84022 whole entry, the tested form may be a part): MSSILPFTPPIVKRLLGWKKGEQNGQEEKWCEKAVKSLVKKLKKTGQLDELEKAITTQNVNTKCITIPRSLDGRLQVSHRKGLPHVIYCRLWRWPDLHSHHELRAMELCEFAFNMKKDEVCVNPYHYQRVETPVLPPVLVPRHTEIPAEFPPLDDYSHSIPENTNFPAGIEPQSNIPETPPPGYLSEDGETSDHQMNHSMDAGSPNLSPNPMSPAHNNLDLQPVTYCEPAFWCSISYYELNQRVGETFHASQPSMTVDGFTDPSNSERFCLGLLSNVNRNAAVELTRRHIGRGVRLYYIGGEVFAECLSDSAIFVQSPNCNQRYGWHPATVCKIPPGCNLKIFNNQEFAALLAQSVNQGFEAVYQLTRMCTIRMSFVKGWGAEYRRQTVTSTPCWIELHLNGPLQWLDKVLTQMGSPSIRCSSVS

With `CC(C)c1ccc(NC(=O)c2cc(S(=O)(=O)NCC3COc4ccccc4O3)ccc2F)cc1` (configuration not stated), the EC50 in experiment [1] was 12.2 µM (active); in the experiment on Streptococcus [2], > 500 µM (not active); at Streptokinase A, 3.53 µM (active); in the experiment with Streptococcus [3] it was 74.4 µM (active).
For the compound `Nc1ccc2nc(-c3ccccc3)sc2c1`, the EC50 in [4] is 23.5 µM (active); in experiment [5] it was 0.958 µM (active); in experiment [6], 2.44 µM (active); in the experiment with HT-1080 it was > 50 µM (not active). Besides, the IC50 at Protein skinhead-1 was 55.9 µM (inactive).
Consider `CC(C)CCN1CCc2nc(COc3ccccc3)c3c(c2C1)COC(C)C3` (configuration not stated), for which the AC50 at Cytochrome P450 2C9 was 6.31 µM (inconclusive).
For the compound `Cc1ccc(S(=O)(=O)n2c(N)nc3cc(C)c(C)cc32)cc1`, the IC50 on Tumor necrosis factor was > 20 µM (inactive); on Interleukin-8, > 5 µM (inactive); with HEK293 [7], > 20 µM (inactive); in the experiment on HEK293 [8] it was > 20 µM (inactive).
Regarding `Oc1cc2c(cc1C(c1ccc(Cl)cc1)N1CCOCC1)OCO2` (configuration not stated), the 50% inhibitory concentration (IC50) in experiment [9] is given as 10.3 µM (not active).
Consider `CC1(c2ccccc2)CC(C)(C)N2C(=O)/C(=C3\SC(=S)NC3=O)c3cccc1c32` (configuration not stated), for which the EC50 in experiment [1] was 0.435 µM (active); on Streptokinase A, > 150 µM (not active); in the experiment with Streptococcus [3] it was 3.08 µM (active). The concentration for half-maximal inhibition (IC50) in experiment [10] is 9.92 µM (active); in [11] it was 1.18 µM (active).
As to `COc1ccc2c(c1)C1C=CCC1C(C(=O)O)N2` (configuration not stated), the 50% inhibitory concentration (IC50) in experiment [12] is 13.2 µM (active); in experiment [13], > 100 µM (not active); in [14] it was > 100 µM (not active); in experiment [15], 20.6 µM (active); in [16], 33.5 µM (active); in experiment [17], 32 µM (active).
Take `Clc1cncc(Cl)c1N/N=C/c1ccncc1`: the AC50 in [18] was 52.8 µM (active).
